The record followed here is patent US10294202B2, “Pyrrolidinones as herbicides” (FMC Corporation, priority 2013, dated 2019).

For one assay, the system named is rice, transplanted. In words: Test F flood (paddy) test. The class given is in vivo, Oryza sativa cv. Japonica—M202. Conditions: 21 d, scale 0-100. The source says:
Three plastic pots (ca. 16-cm diameter) per rate were partially filled with sterilized Tama silt loam soil comprising a 35:50:15 ratio of sand, silt and clay and 2.6% organic matter. Separate plantings for each of the three pots were as follows. Seeds from the U.S. of monochoria (Monochoria vaginalis), sedge, umbrella (small-flower umbrella sedge, Cyperus difformis), bulrush, […] bulrush, Scirpus juncoides), and […] (purple […] coccinea), were planted into one 16-cm pot for each rate. Seeds from the U.S. of flatsedge, rice (rice flatsedge, Cyperus iria), sprangletop, Brdd. (bearded sprangletop, Leptochloa fascicularis), one stand of 9 or 10 water seeded rice seedlings (Rice, W.S. Jap, Oryza sativa cv. 'Japonica-[…]' or Rice, W.S. Ind, 'Indica'), and two stands of 3 or 4 seedlings of rice, transplanted (transplanted rice, Oryza sativa cv. 'Japonica-[…]') were planted into one 16-cm pot for each rate. Seeds from the U.S. of barnyardgrass (Echinochloa crus-galli), […] (common […], Alisma plantago-aquatica), and watergrass, late (late watergrass, Echinochloa oryzicola) were planted into one 16-cm pot for each rate. Plantings were sequential so that crop and weed species were at the 2.0 to 2.5-leaf stage at time of treatment. Potted plants were grown in a greenhouse with day/night temperature settings of 30/27° C., and supplemental balanced lighting was provided to maintain a 16-h photoperiod. Test pots were maintained in the greenhouse until test completion. At time of treatment, test pots were flooded to 3 cm above the soil surface, treated by application of test compounds directly to the paddy water, and then maintained at that water depth for the duration of the test. Effects of treatments on rice and weeds were visually evaluated by comparison to untreated controls after 21 d. Plant response ratings, summarized in Table F, are based on a scale of 0 to 100 where 0 is no effect and 100 is complete control. A dash (-) response means no test result.

In another assay the test system is Russian thistle. In words: Test D pre-/postemergence herbicide test. The class given is in vivo, Salsola kali. Conditions: for Plant response rating: Postemergence, Russian Thistle, scale 0 to 100; for Plant response rating, Russian Thistle: Preemergence, scale 0 to 100 (0 no effect, 100 complete control). The source says: (§1) Seeds of plant species selected from bluegrass (annual bluegrass, Poa annua), blackgrass (Alopecurus myosuroides), canarygrass (littleseed canarygrass, Phalaris minor), chickweed (common chickweed, Stellaria media), galium (catchweed bedstraw, Galium aparine), bromegrass, downy (downy bromegrass, Bromus tectorum), field poppy (Papaver rhoeas), field violet (Viola arvensis), foxtail, green (green foxtail, Setaria viridis), deadnettle (henbit deadnettle, Lamium amplexicaule), ryegrass, Italian (Italian ryegrass, Lolium multiflorum), kochia (Kochia scoparia), lambsquarters (Chenopodium album), oilseed rape (Brassica napus), pigweed (Amaranthus retroflexus), chamomile (scentless chamomile, Matricaria inodora), Russian thistle (Salsola kali), speedwell (bird's-eye speedwell, Veronica persica), barley, spring (spring barley, Hordeum vulgare), wheat, spring (spring wheat, Triticum aestivum), buckwheat, wild (wild buckwheat, Polygonum convolvulus), mustard, wild (wild mustard, Sinapis arvensis), oat, wild (wild oat, Avena fatua), radish, wild (wild radish, Raphanus raphanistrum), […]), barley, winter (winter barley, Hordeum vulgare), and wheat, winter (winter wheat, Triticum aestivum) were planted into a silt loam soil and treated preemergence with test chemicals formulated in a non-phytotoxic solvent mixture which included a surfactant. At the same time, these species were planted in pots containing Redi-Earth® planting medium (Scotts Company, 14111 Scottslawn Road, Marysville, Ohio 43041) comprising spaghnum peat moss, vermiculite, wetting agent and starter nutrients and treated with postemergence applications of the test chemicals formulated in the same manner. Plants ranged in height from 2 to 18 cm (1- to 4-leaf stage). Treated plants and controls were maintained in a controlled growth environment for 7 to 21 days after which time all species were compared to controls and visually evaluated. Plant response ratings, summarized in Table D, are based on a scale of 0 to 100 where 0 is no effect and 100 is complete control. A dash (-) response means no test result.

The test system of a further assay is deadnettle. In words: Test D pre-/postemergence herbicide test. The class given is in vivo, Lamium amplexicaule. To be noted: for Plant response rating: Deadnettle, scale 0 to 100; for Plant response rating, Deadnettle: scale 0 to 100 (0 no effect, 100 complete control).
Source text: as §1

The test system of another assay is field violet. In words: Test D pre-/postemergence herbicide test. Conditions: for Plant response rating: Field Violet, scale 0 to 100; for Plant response rating, Field Violet: scale 0 to 100 (0 no effect, 100 complete control). The class given is in vivo, Viola arvensis.
Source text: as §1

The test system of another assay is dayflower, VA. The assay is described as follows: Test E preemergence herbicide test. Format: in vivo, Commelina virginica. On the set-up: key: 0 = no effect, 100 = complete control. The text has this: Seeds of plant species selected from corn (Zea mays), soybean (Glycine max), velvetleaf (Abutilon theophrasti), lambsquarters (Chenopodium album), wild poinsettia (Euphorbia heterophylla), pigweed, palmer (palmer pigweed, Amaranthus palmeri), waterhemp (common waterhemp, Amaranthus rudis), surinam grass (Brachiaria decumbens), crabgrass, large (large crabgrass, Digitaria sanguinalis), crabgrass, Brazil (Brazilian crabgrass, Digitaria horizontalis), panicum, fall (fall panicum, Panicum dichotomiflorum), foxtail, giant (giant foxtail, Setaria faberii), foxtail, green (green foxtail, Setaria viridis), goosegrass (Eleusine indica), johnsongrass (Sorghum halepense), ragweed (common ragweed, Ambrosia elatior), barnyardgrass (Echinochloa crus-galli), sandbur (southern sandbur, Cenchrus echinatus), arrowleaf […] rhombifolia), ryegrass, Italian (Italian ryegrass, Lolium multiflorum), dayflower, VA (Virginia dayflower, Commelina virginica), field bindweed (Convolvulus arvensis), morningglory (Ipomoea coccinea), nightshade (eastern black nightshade, Solanum ptycanthum), kochia (Kochia scoparia), nutsedge, yellow (yellow nutsedge, Cyperus esculentus), cocklebur (common cocklebur, Xanthium strumarium), smartweed (ladysthumb smartweed, Polygonum Persicaria) and beggarticks (hairy beggarticks, Bidens pilosa), were planted into a silt loam soil and treated preemergence with test chemicals formulated in a non-phytotoxic solvent mixture which included a surfactant. Treated plants and controls were maintained in a greenhouse for 21 days, after which time all species were compared to controls and visually evaluated. Plant response ratings, summarized in Table E, are based on a scale of 0 to 100 where 0 is no effect and 100 is complete control. A dash (-) response means no test result.

Turning to `CN1CC(c2ccc(F)cc2)C(C(=O)Nc2cccc(F)c2F)C1=O` (stereo not shown) [Compound 271], the “Plant response rating, Rice, Transplanted” value with rice, transplanted (64 g ai/ha) is listed as 0; in the assay on rice, transplanted (125 g ai/ha), 0; in the assay with rice, transplanted (250 g ai/ha), 0; with rice, transplanted (500 g ai/ha), 15.
In the case of `O=C1NCC(c2ccc(F)c(F)c2)C1C(=O)Nc1cccc(F)c1` (racemic) [Compound 12], the Plant response rating in the assay with Russian thistle (16 g ai/ha) worked out at 0; in the assay with Russian thistle (31 g ai/ha), 0; in the assay with Russian thistle (62 g ai/ha), 20; in the assay on Russian thistle (125 g ai/ha), 30; with Russian thistle (250 g ai/ha) it was 80; in the assay on deadnettle (Postemergence, 16 g ai/ha), 0. Also, the Plant response rating in the assay on deadnettle (Postemergence, 31 g ai/ha) is on record as 0; with deadnettle (Postemergence, 62 g ai/ha) it was 10; in the assay with deadnettle (Postemergence, 125 g ai/ha), 15; with deadnettle (Postemergence, 250 g ai/ha) it was 20; with deadnettle (Preemergence, 125 g ai/ha), 0; in the assay on deadnettle (Preemergence, 250 g ai/ha), 50. Besides, the Plant response rating is 0 in the assay with field violet (Postemergence, 16 g ai/ha); 0 in the assay on field violet (Postemergence, 31 g ai/ha); 30 in the assay with field violet (Postemergence, 62 g ai/ha); 35 in the assay on field violet (Postemergence, 125 g ai/ha); 40 with field violet (Postemergence, 250 g ai/ha); 0 in the assay on field violet (Preemergence, 125 g ai/ha). Also, in the assay with field violet (Preemergence, 250 g ai/ha), the Plant response rating turned out to be 0. For the same molecule, the “Plant response rating, Russian Thistle” value in the assay with Russian thistle (31 g ai/ha), with Russian thistle (62 g ai/ha), in the assay on Russian thistle (125 g ai/ha), in the assay with Russian thistle (250 g ai/ha) and in the assay with Russian thistle (16 g ai/ha) was 0 in each case. Also, the “Plant response rating, Deadnettle” value is listed as 0 in the assay on deadnettle (Preemergence, 31 g ai/ha); 0 with deadnettle (Preemergence, 62 g ai/ha); 0 in the assay on deadnettle (Preemergence, 16 g ai/ha). Besides, the “Plant response rating, Field Violet” value with field violet (Preemergence, 31 g ai/ha) is given as 0; in the assay on field violet (Preemergence, 62 g ai/ha), 0; in the assay on field violet (Preemergence, 16 g ai/ha), 0.
Regarding `O=C1NCC(c2cc(F)c(F)c(F)c2)C1C(=O)Nc1ccccc1C(F)(F)F` (racemic) [Compound 33], the Plant response rating with Russian thistle (16 g ai/ha) worked out at 0; in the assay with Russian thistle (31 g ai/ha), 0; in the assay with Russian thistle (62 g ai/ha) it was 0; in the assay on Russian thistle (125 g ai/ha) it was 0; in the assay with Russian thistle (250 g ai/ha), 0; with deadnettle (Postemergence, 16 g ai/ha), 0. Moreover, the Plant response rating with deadnettle (Postemergence, 31 g ai/ha) is reported as 0; in the assay on deadnettle (Postemergence, 62 g ai/ha) it was 0; with deadnettle (Postemergence, 125 g ai/ha), 0; in the assay with deadnettle (Postemergence, 250 g ai/ha), 10; in the assay with field violet (Postemergence, 16 g ai/ha), 0; in the assay on field violet (Postemergence, 31 g ai/ha), 0. Besides, the Plant response rating amounted to 0 in the assay on field violet (Postemergence, 62 g ai/ha); 0 in the assay on field violet (Postemergence, 125 g ai/ha); 0 with field violet (Postemergence, 250 g ai/ha).
For `O=C1NCC(c2cccc(C(F)(F)F)c2)C1C(=O)Nc1cccc(F)c1F` (stereo not shown) [Compound 241], the “Plant response rating, Deadnettle” value in the assay on deadnettle (Preemergence, 31 g ai/ha) came out at 35; with deadnettle (Preemergence, 62 g ai/ha) it was 30; with deadnettle (Preemergence, 125 g ai/ha) it was 35. Further, the Plant response rating in the assay with deadnettle (Preemergence, 250 g ai/ha) was found to be 45; in the assay on field violet (Preemergence, 250 g ai/ha), 30. The “Plant response rating, Field Violet” value is 15 in the assay with field violet (Preemergence, 31 g ai/ha); 15 in the assay on field violet (Preemergence, 62 g ai/ha); 20 in the assay on field violet (Preemergence, 125 g ai/ha).
On to `O=C1NCC(c2cccc(Br)c2)C1C(=O)Nc1ccccc1F` (stereo not shown) [Compound 66], for which the “Plant response rating, Dayflower, VA” value in the assay with dayflower, VA (16 g ai/ha) came to 0; with dayflower, VA (31 g ai/ha), 0; with dayflower, VA (62 g ai/ha), 0; with dayflower, VA (125 g ai/ha) it was 0; in the assay with dayflower, VA (250 g ai/ha), 0.
For the molecule `O=C1NCC(c2cccc(C(F)(F)F)c2)C1C(=O)Nc1ccc(F)cc1F` (racemic) [Compound 207], the “Plant response rating, Deadnettle” value with deadnettle (Preemergence, 31 g ai/ha) amounted to 0; in the assay on deadnettle (Preemergence, 62 g ai/ha) it was 0; in the assay with deadnettle (Preemergence, 125 g ai/ha), 20. The Plant response rating in the assay on deadnettle (Preemergence, 250 g ai/ha) was determined as 20; with field violet (Preemergence, 250 g ai/ha) it was 35. Moreover, the “Plant response rating, Rice, Transplanted” value with rice, transplanted (125 g ai/ha) is given as 0; in the assay on rice, transplanted (250 g ai/ha), 0; in the assay with rice, transplanted (500 g ai/ha), 0. The “Plant response rating, Field Violet” value with field violet (Preemergence, 31 g ai/ha) was determined as 10; with field violet (Preemergence, 62 g ai/ha) it was 15; in the assay with field violet (Preemergence, 125 g ai/ha) it was 35.
Take `O=C1NCC(c2cc(F)c(F)c(F)c2)C1C(=O)Nc1ccccc1F` (racemic) [Compound 34]: the Plant response rating in the assay on Russian thistle (16 g ai/ha) was found to be 0; with Russian thistle (31 g ai/ha) it was 0; in the assay on Russian thistle (62 g ai/ha), 0; in the assay with Russian thistle (125 g ai/ha), 0; in the assay with Russian thistle (250 g ai/ha), 0; in the assay with deadnettle (Postemergence, 16 g ai/ha), 0. In addition, the Plant response rating stood at 0 in the assay with deadnettle (Postemergence, 31 g ai/ha); 0 in the assay on deadnettle (Postemergence, 62 g ai/ha); 0 in the assay on deadnettle (Postemergence, 125 g ai/ha); 0 in the assay on deadnettle (Postemergence, 250 g ai/ha); 0 with field violet (Postemergence, 16 g ai/ha); 0 in the assay with field violet (Postemergence, 31 g ai/ha). The Plant response rating is recorded as 0 in the assay on field violet (Postemergence, 62 g ai/ha); 0 with field violet (Postemergence, 125 g ai/ha); 20 in the assay on field violet (Postemergence, 250 g ai/ha).
